Measurements reported in US11730720B2, “ALK5 inhibitors” (THERAVANCE BIOPHARMA R&D IP, LLC, priority 2018, dated 2023).

Legend:
[1] = biological target: T1, recombinant human ALK5 (TGF-βR1) protein (Homo sapiens, UniProt P36897); test: Biochemical ALK5 (TGF-βR1) assay to measure pKi (LANCE Ultra ULight kinase assay); details: apparent pKi, converted from pIC50 using the Cheng-Prusoff equation
T1 construct: purchased Life Technologies PR9075A
T1 sequence (P36897 34-503): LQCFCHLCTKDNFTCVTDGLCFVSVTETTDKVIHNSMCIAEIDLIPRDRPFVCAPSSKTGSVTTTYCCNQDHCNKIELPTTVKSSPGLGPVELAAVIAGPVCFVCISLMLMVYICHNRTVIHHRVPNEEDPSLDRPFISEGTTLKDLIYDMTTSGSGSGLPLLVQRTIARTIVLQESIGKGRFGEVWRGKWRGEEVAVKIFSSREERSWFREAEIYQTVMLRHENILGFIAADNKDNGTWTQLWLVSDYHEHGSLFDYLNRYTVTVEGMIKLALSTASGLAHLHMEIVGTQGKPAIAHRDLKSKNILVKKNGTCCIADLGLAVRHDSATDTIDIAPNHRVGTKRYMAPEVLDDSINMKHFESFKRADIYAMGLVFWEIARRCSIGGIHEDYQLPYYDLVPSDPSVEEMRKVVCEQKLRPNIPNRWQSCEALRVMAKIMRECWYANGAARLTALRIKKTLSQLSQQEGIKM
Method in brief: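 TR-FRET kinase format: compound dose range 10 μM–25 pM equilibrated 60 min with human ALK5 and ULight-labelled topoisomerase 2α peptide in HEPES/MgCl2 buffer pH 7.5 with DTT. Reaction started with ATP (125 μM stock, 5× final), 60 min at 37° C, stopped with EDTA/Eu-anti-phospho antibody; pKi derived from pIC50 via Cheng-Prusoff.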

[2] = test system: TGF-β-stimulated SMAD3 phosphorylation in BEAS-2B cells; test: Cellular ALK5 potency assay, inhibition of TGF-β stimulated pSMAD3 formation in BEAS-2B cells; format: cell-based; details: Homo sapiens, inhibition of TGF-β (10 ng/mL) stimulated pSMAD3 formation, 1 hour compound incubation, read-out: BEAS2B pIC50 (converted)
Method in brief: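 Phospho-SMAD3 was quantified by AlphaLISA in lysates of human lung epithelial BEAS-2B cells. Compound was added 1 h (37 °C, HEPES/BSA-supplemented HBSS) before a 30 min challenge with 10 ng/mL TGF-β. Values are pIC50 relative to stimulated cells without compound.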

SMILES | Ki [1] | IC50 [2]
COC(=O)CC1CN(c2cnc3ccc(-c4nc[nH]c4-c4cccc(Cl)c4)nc3c2)CCN1 (stereo not drawn) [Compound 29-3, methyl 2-(4-(6-(5-(3-chlorophenyl)-1H-imidazol-4-yl)-1,5-naphthyridin-3-yl)piperazin-2-yl)acetate] | 0.398 to 3.16 nM | 25.1 to 158 nM
Fc1ccc(Cl)cc1-c1nc2ccccn2c1-c1ccc2ncc(-c3cn[nH]c3)cc2n1 [Compound 3-10, 2-[2-(5-chloro-2-fluoro-phenyl)imidazo[1,2-a]pyridin-3-yl]-7-(1H-pyrazol-4-yl)-1,5-naphthyridine] | 0.398 to 3.16 nM | 1580 to 10000 nM
COCc1cccc(-c2n[nH]cc2-c2ccc3ncc(N4CCC(N)C4)cc3n2)c1 (stereo not drawn) [Compound 14-6, 1-[6-[3-[3-(methoxymethyl)phenyl]-1H-pyrazol-4-yl]-1,5-naphthyridin-3-yl]pyrrolidin-3-amine] | 0.398 to 3.16 nM | 25.1 to 158 nM
O=C(O)[C@H]1CN(c2cnc3ccc(-c4c[nH]nc4-c4cc(Cl)ccc4F)nc3c2)CCN1 [Compound 1-130, (2R)-4-[6-[3-(5-chloro-2-fluoro-phenyl)-1H-pyrazol-4-yl]-1,5-naphthyridin-3-yl]piperazine-2-carboxylic acid] | 0.398 to 3.16 nM | 200 to 1260 nM
CNCCn1cc(-c2cnc3ccc(-c4c(-c5ccc(F)c(F)c5)[nH]c5cccnc45)nc3c2)cn1 [Compound 27-1, 2-[4-[6-[2-(3,4-difluorophenyl)-1H-pyrrolo[3,2-b]pyridin-3-yl]-1,5-naphthyridin-3-yl]pyrazol-1-yl]-N-methyl-ethanamine] | 3.98 to 31.6 nM | 25.1 to 158 nM
Fc1ccc(Cl)cc1-c1n[nH]cc1-c1ccc2ncc(-c3[nH]nc4c3CNCC4)cc2n1 [Compound 1-115, 2-[3-(5-chloro-2-fluoro-phenyl)-1H-pyrazol-4-yl]-7-(4,5,6,7-tetrahydro-2H-pyrazolo[4,3-c]pyridin-3-yl)-1,5-naphthyridine] | 0.0398 to 0.316 nM | 25.1 to 158 nM
O=C(OCc1ccccc1)N1CCC2(CCN(c3cnc4ccc(-c5c[nH]nc5-c5cc(Cl)ccc5F)nc4c3)C2)C1 (stereo not drawn) [Compound 1-35, benzyl 7-[6-[3-(5-chloro-2-fluoro-phenyl)-1H-pyrazol-4-yl]-1,5-naphthyridin-3-yl]-2,7-diazaspiro[4.4]nonane-2-carboxylate] | 3.98 to 31.6 nM | 200 to 1260 nM
CN1CC=C(c2cnc3ccc(-c4c[nH]nc4-c4ccc(F)c(F)c4)nc3c2)C1 [Compound 8-22, 2-(3-(3,4-difluorophenyl)-1H-pyrazol-4-yl)-7-(1-methyl-2,5-dihydro-1H-pyrrol-3-yl)-1,5-naphthyridine] | 0.398 to 3.16 nM | 25.1 to 158 nM
Fc1ccc(Cl)cc1-c1n[nH]cc1-c1ccc2ncc(NCCN3CCC3)cc2n1 [Compound 1-8, N-[2-(azetidin-1-yl)ethyl]-6-[3-(5-chloro-2-fluoro-phenyl)-1H-pyrazol-4-yl]-1,5-naphthyridin-3-amine] | 0.0398 to 0.316 nM | ≤ 20 nM
Fc1ccc(Cl)cc1-c1n[nH]cc1-c1ccc2ncc(-c3cnn4c3CNCC4)cc2n1 [Compound 1-108, 2-[3-(5-chloro-2-fluoro-phenyl)-1H-pyrazol-4-yl]-7-(4,5,6,7-tetrahydropyrazolo[1,5-a]pyrazin-3-yl)-1,5-naphthyridine] | ≤ 0.0316 nM | ≤ 20 nM
CC(C)N1CCN(CCNc2cnc3ccc(-c4c[nH]nc4-c4ccc(F)cc4F)nc3c2)CC1 [Compound 10-2, 6-(3-(2,4-difluorophenyl)-1H-pyrazol-4-yl)-N-(2-(4-isopropylpiperazin-1-yl)ethyl)-1,5-naphthyridin-3-amine] | 3.98 to 31.6 nM | 25.1 to 158 nM
CN1CCN(CC(C)(C)Nc2cnc3ccc(-c4c[nH]nc4-c4cc(Cl)ccc4F)nc3c2)CC1 [Compound 1-9, 6-[3-(5-chloro-2-fluoro-phenyl)-1H-pyrazol-4-yl]-N-[1,1-dimethyl-2-(4-methylpiperazin-1-yl)ethyl]-1,5-naphthyridin-3-amine] | 3.98 to 31.6 nM | 200 to 1260 nM
CNCCn1cc(-c2cnc3ccc(-c4c[nH]nc4-c4ccc(F)c(F)c4)nc3c2)nn1 [Compound 8-27, 2-(4-(6-(3-(3,4-difluorophenyl)-1H-pyrazol-4-yl)-1,5-naphthyridin-3-yl)-1H-1,2,3-triazol-1-yl)-N-methylethan-1-amine] | 0.0398 to 0.316 nM | 25.1 to 158 nM
CC(C)NCCN1CCN(c2cnc3ccc(-c4c[nH]nc4-c4cc(Cl)c(F)cc4F)nc3c2)CC1 [Compound 6-39, N-[2-[4-[6-[3-(5-chloro-2,4-difluoro-phenyl)-1H-pyrazol-4-yl]-1,5-naphthyridin-3-yl]piperazin-1-yl]ethyl]propan-2-amine] | 0.0398 to 0.316 nM | 25.1 to 158 nM
Fc1ccc(Cl)cc1-c1[nH]cnc1-c1ccc2ncc(NCCN3CCCC3)cc2n1 [Compound 2-26, 6-[5-(5-chloro-2-fluoro-phenyl)-1H-imidazol-4-yl]-N-(2-pyrrolidin-1-ylethyl)-1,5-naphthyridin-3-amine] | 0.0398 to 0.316 nM | ≤ 20 nM

Second part, led by results:

Ki [1] | SMILES | IC50 [2]
0.398 to 3.16 nM | CN(C)C1CCN(c2cnc3ccc(-c4c[nH]nc4-c4ccc(F)c(F)c4)nc3c2)CC1 [Compound 8-7, 1-[6-[3-(3,4-difluorophenyl)-1H-pyrazol-4-yl]-1,5-naphthyridin-3-yl]-N,N-dimethyl-piperidin-4-amine] | 25.1 to 158 nM
0.0398 to 0.316 nM | Cn1cccc(-c2cnc3ccc(-c4c[nH]nc4-c4cc(Cl)ccc4F)nc3c2)c1=O [Compound 1-90, 3-(6-(3-(5-chloro-2-fluorophenyl)-112-pyrazol-4-yl)-1,5-naphthyridin-3-yl)-1-methylpyridin-2(1H)-one] | ≤ 20 nM
0.398 to 3.16 nM | Fc1ccc(Cl)cc1-c1nc2ccccn2c1-c1ccc2ncc(N3CCCNCC3)cc2c1 [Compound 19-8, 6-[2-(5-chloro-2-fluoro-phenyl)imidazo[1,2-a]pyridin-3-yl]-3-(1,4-diazepan-1-yl)quinoline] | 200 to 1260 nM
0.0398 to 0.316 nM | Fc1cc(F)c(-c2[nH]cnc2-c2ccc3ncc(NCCN4CCNCC4)cc3n2)cc1Cl [Compound 7-1, 6-(5-(5-chloro-2,4-difluorophenyl)-1H-imidazol-4-yl)-N-(2-(piperazin-1-yl)ethyl)-1,5-naphthyridin-3-amine] | 25.1 to 158 nM
≤ 0.0316 nM | CNCCn1cc(-c2cnc3ccc(-c4c[nH]nc4-c4ccc(F)c(F)c4)nc3c2)cn1 [Compound 8-12, 2-(4-(6-(3-(3,4-difluorophenyl)-1H-pyrazol-4-yl)-1,5-naphthyridin-3-yl)-1H-pyrazol-1-yl)-N-methylethan-1-amine] | ≤ 20 nM
0.0398 to 0.316 nM | COC(=O)N1CCc2nnc(-c3cnc4ccc(-c5c[nH]nc5-c5cc(Cl)c(F)cc5F)nc4c3)cc2C1 [Compound 6-61, methyl 3-[6-[3-(5-chloro-2,4-difluoro-phenyl)-1H-pyrazol-4-yl]-1,5-naphthyridin-3-yl]-7,8-dihydro-5H-pyrido[4,3-c]pyridazine-6-carboxylate] | 25.1 to 158 nM
0.0398 to 0.316 nM | Fc1ccc(Cl)cc1-c1n[nH]cc1-c1ccc2ncc(-c3cn4c(n3)CNCC4)cc2n1 [Compound 1-116, 2-[3-(5-chloro-2-fluoro-phenyl)-1H-pyrazol-4-yl]-7-(5,6,7,8-tetrahydroimidazo[1,2-a]pyrazin-2-yl)-1,5-naphthyridine] | 25.1 to 158 nM
0.398 to 3.16 nM | O=C(O)[C@@H]1CN(c2cnc3ccc(-c4nc[nH]c4-c4cc(Cl)ccc4F)nc3c2)CCN1 [Compound 2-13, (S)-4-(6-(5-(5-chloro-2-fluorophenyl)-1H-imidazol-4-yl)-1,5-naphthyridin-3-yl)piperazine-2-carboxylic acid] | 200 to 1260 nM
0.0398 to 0.316 nM | NC(=O)c1coc(-c2cnc3ccc(-c4c[nH]nc4-c4cc(Cl)ccc4F)nc3c2)n1 [Compound 1-105, 2-[6-[3-(5-chloro-2-fluoro-phenyl)-1H-pyrazol-4-yl]-1,5-naphthyridin-3-yl]oxazole-4-carboxamide] | 25.1 to 158 nM
0.0398 to 0.316 nM | Fc1cc(F)c(-c2n[nH]cc2-c2ccc3ncc(-c4cnn5c4CNCC5)cc3n2)cc1Cl [Compound 6-45, 2-(3-(5-chloro-2,4-difluorophenyl)-1H-pyrazol-4-yl)-7-(4,5,6,7-tetrahydropyrazolo[1,5-a]pyrazin-3-yl)-1,5-naphthyridine] | 25.1 to 158 nM
0.398 to 3.16 nM | Fc1ccc(Cl)cc1-c1[nH]cnc1-c1ccc2ncc(N3CCCNCC3)cc2n1 [Compound 2-7, 2-[5-(5-chloro-2-fluoro-phenyl)-1H-imidazol-4-yl]-7-(1,4-diazepan-1-yl)-1,5-naphthyridine] | 25.1 to 158 nM
0.0398 to 0.316 nM | CC(C)(C)N1CCN(CCNc2cnc3ccc(-c4c[nH]nc4-c4cc(Cl)c(F)cc4F)nc3c2)CC1 [Compound 6-13, N-(2-(4-(tert-butyl)piperazin-1-yl)ethyl)-6-(3-(5-chloro-2,4-difluorophenyl)-1H-pyrazol-4-yl)-1,5-naphthyridin-3-amine] | 25.1 to 158 nM
